27 compounds from ChEMBL document CHEMBL1143100, “Phenylethynyl-pyrrolo[1,2-a]pyrazine: a new potent and selective tool in the mGluR5 antagonists arena” (Bioorg Med Chem Lett, 2008) can be followed below.

The IC50 is the concentration at which inhibition is half-maximal. What is called solubility is the dissolved amount per volume that the medium holds.

Each structure is given as a SMILES string. In brackets after ≈: the same amount, converted by molar mass. A value given as a limit tells only on which side of the number the result lay.

In series [1] the target is Metabotropic glutamate receptor 5 (Homo sapiens, UniProt P41594). Nature of the series: Antagonist activity at human mGluR5 expressed in CHO cells assessed as increase in intracellular calcium level by FLIPR. In kind it is functional, cell-based.
Series [2] is described as follows: Solubility at pH 7.4. Type of series: physicochemical. The settings on record: buffer.

Chain of Metabotropic glutamate receptor 5 (P41594 whole entry): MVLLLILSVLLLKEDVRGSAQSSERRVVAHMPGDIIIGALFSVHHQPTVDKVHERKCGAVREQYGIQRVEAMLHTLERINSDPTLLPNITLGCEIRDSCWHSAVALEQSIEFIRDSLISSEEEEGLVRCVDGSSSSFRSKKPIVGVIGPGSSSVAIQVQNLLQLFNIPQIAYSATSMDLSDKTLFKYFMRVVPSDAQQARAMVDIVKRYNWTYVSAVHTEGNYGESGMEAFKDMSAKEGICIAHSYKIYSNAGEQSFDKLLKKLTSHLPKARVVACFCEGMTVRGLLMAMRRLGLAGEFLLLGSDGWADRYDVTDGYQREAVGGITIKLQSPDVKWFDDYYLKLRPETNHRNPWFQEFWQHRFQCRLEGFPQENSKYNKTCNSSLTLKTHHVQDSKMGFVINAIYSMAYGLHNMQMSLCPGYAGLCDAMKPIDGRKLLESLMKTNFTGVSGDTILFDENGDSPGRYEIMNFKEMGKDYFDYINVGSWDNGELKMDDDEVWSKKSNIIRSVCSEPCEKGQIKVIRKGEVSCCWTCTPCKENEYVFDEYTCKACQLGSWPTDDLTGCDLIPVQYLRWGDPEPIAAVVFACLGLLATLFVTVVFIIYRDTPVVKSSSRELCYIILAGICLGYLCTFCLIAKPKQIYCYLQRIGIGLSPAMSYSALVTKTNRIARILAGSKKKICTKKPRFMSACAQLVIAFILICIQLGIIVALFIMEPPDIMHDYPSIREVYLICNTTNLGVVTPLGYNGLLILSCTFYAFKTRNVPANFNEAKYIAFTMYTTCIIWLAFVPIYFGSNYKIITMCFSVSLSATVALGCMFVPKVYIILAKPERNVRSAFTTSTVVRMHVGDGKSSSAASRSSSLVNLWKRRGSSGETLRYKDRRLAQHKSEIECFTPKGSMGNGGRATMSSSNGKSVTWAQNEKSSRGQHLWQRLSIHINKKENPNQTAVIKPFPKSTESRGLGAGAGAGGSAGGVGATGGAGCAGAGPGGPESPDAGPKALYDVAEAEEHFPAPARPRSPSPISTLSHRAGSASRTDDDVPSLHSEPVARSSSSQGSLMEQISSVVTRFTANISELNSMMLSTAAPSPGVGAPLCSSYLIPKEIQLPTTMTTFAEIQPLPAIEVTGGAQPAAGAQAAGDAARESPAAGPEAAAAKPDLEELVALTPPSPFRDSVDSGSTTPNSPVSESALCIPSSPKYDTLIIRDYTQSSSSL

Consider `Cc1cc2c(C#Cc3cccnc3)nc(C)cn2c1`, for which the IC50 in series [1] was 2000 nM.

For the compound `Cc1cn2cc(C(=O)N3CCN(C)CC3)cc2c(C#Cc2cccc(C(F)(F)F)c2)n1`, in series [1], the half-inhibitory concentration (IC50) is 251 nM.

`CCOC(=O)c1cc2c(C#Cc3ccc(C#N)cc3)nc(C)cn2c1`: in series [1], the concentration for half-maximal inhibition (IC50) was more than 15800 nM.

With `Cc1cn2cc(C(F)(F)F)cc2c(C#Cc2cccc(-c3ccsc3)c2)n1`, the IC50 in series [1] is 5010 nM.

With `Cc1cn2cc(C(F)(F)F)cc2c(C#Cc2ccc(F)cc2F)n1`, the IC50 in series [1] was more than 15800 nM.

Take `Cc1cn2cc(C(F)(F)F)cc2c(C#Cc2ccc(NS(C)(=O)=O)cc2)n1`: the concentration for half-maximal inhibition (IC50) in series [1] was more than 15800 nM.

In the case of `Cc1cn2cc(C(F)(F)F)cc2c(C#Cc2cccs2)n1`, the IC50 in series [1] is 63.1 nM.

In series [2], `Cc1cccc(C#Cc2ccccc2)n1` showed a solubility of 70 µg/mL (≈ 362 µM).

Take `Cc1cc2c(C#Cc3ccc(C(F)(F)F)cc3)nc(C)cn2c1`: the IC50 in series [1] was more than 15800 nM.

Turning to `Cc1cn2cc(C(F)(F)F)cc2c(C#Cc2ccc(C(F)(F)F)cc2)n1`, the IC50 in series [1] is more than 15800 nM.

Turning to `Cc1cn2cc(C(=O)N3CCCCC3C)cc2c(C#Cc2ccsc2)n1` (configuration not stated), the half-inhibitory concentration (IC50) in series [1] is 100 nM.

For the compound `Cc1cn2cc(C(F)(F)F)cc2c(C#Cc2cccc(C(=O)O)c2)n1`, in series [1], the concentration for half-maximal inhibition (IC50) was more than 12600 nM.

Regarding `Cc1cn2cc(C(F)(F)F)cc2c(C#Cc2cccc(-c3ccoc3)c2)n1`, the half-maximal inhibitory concentration (IC50) in series [1] is 10000 nM.

Turning to `Cc1cn2cc(C(F)(F)F)cc2c(C#Cc2cccnc2)n1`, in series [1], the half-inhibitory concentration (IC50) was 501 nM.

For the compound `Cc1cn2cc(C(F)(F)F)cc2c(C#Cc2cccc(-c3c(C)noc3C)c2)n1`, the IC50 in series [1] was more than 12600 nM.

In the case of `Cc1cn2cccc2c(C#Cc2ccc(Br)cc2)n1`, the IC50 in series [1] was more than 12600 nM.

In the case of `Cc1cn2cc(C(=O)N3CCN(C)CC3)cc2c(C#Cc2ccsc2)n1`, the concentration for half-maximal inhibition (IC50) in series [1] was 158 nM.

Regarding `Cc1cn2cc(C(=O)N3CCCC3C)cc2c(C#Cc2ccsc2)n1` (configuration not stated), the IC50 in series [1] was 39.8 nM.

In the case of `Cc1cn2cc(C#N)cc2c(C#Cc2cccc(F)c2)n1`, the IC50 in series [1] was 0.794 nM.

On to `Cc1cccc(C#Cc2nc(C)cn3cccc23)c1`, for which the IC50 in series [1] is 0.398 nM.

As for `Cc1cn2cc(C(F)(F)F)cc2c(C#Cc2ccc(C#N)cc2)n1`, the concentration for half-maximal inhibition (IC50) in series [1] is more than 15800 nM.

For the compound `Cc1cn2cc(C(=O)N3CCCC3)cc2c(C#Cc2ccsc2)n1`, the IC50 in series [1] was 20 nM.

In the case of `Cc1cn2cc(C(N)=O)cc2c(C#Cc2ccccc2F)n1`, in series [1], the half-inhibitory concentration (IC50) is 501 nM.

Turning to `Cc1cn2cc(CN3CCNC(=O)C3)cc2c(C#Cc2ccccc2)n1`, the IC50 in series [1] is 200 nM.

For `Cc1cc2c(C#Cc3ccccc3)nc(C)cn2c1`, the concentration for half-maximal inhibition (IC50) in series [1] is 50.1 nM.

On to `Cc1cn2cc(C(F)(F)F)cc2c(C#Cc2cccc(Br)c2)n1`, for which the IC50 in series [1] was 25.1 nM.

As to `Cc1cn2cc(C(=O)N3CCC(F)(F)C3)cc2c(C#Cc2ccsc2)n1`, the concentration for half-maximal inhibition (IC50) in series [1] was 126 nM.
